# Oligonucleotides are written 5' to 3', each unit as a sugar letter and its base; * is a phosphorothioate linkage, no mark a phosphodiester; rarer units and linkages stand in square brackets, end groups in braces. Plain capitals give the bases only. k = constrained ethyl (cEt); [5mC] = 5-methylcytosine; d = 2'-deoxy (DNA)
# What was measured:
# Type in all cases: cell-based, human
# KLK3 mRNA = KLK3 mRNA (AR target gene) in C4-2B MR cells
# C4-2B MR cells = test: Proliferation of MDV3100-resistant C4-2B cells (CellTiter 96); settings: 6 days
# Procedure, shortened: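 Antisense oligonucleotides were added to the culture medium at 0.04, 0.20, 1.00 and 5.00 μM, with a non-targeting oligonucleotide as negative control. After 6 days of treatment, proliferation was read with CellTiter 96 AQueous One. Values are percent inhibition relative to untreated cells.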
# AR mRNA = AR mRNA levels in LMR20 cells (with/without DHT or R1881); settings: for AR mRNA levels (% baseline value) after treatment with DHT / AR mRNA levels (% baseline value) after treatment with R1881 / AR mRNA levels (% baseline value) of cells without AR agonist treatment: LMR20 cells; for AR mRNA levels (% baseline value) after treatment with DHT: DHT 10 nM 72 hrs; for AR mRNA levels (% baseline value) after treatment with R1881: R1881 10 nM 72 hrs; for AR mRNA levels (% baseline value) of cells without AR agonist treatment: no AR agonist; for AR mRNA levels in LMR20 cells: with or without DHT/R1881
# Procedure: LMR20 cells were plated at 1,500 cells per well in phenol red-free medium with CSS.
# 22RV1 cells = test: 22RV1 cell proliferation, ASO in combination with MDV3100 (Example 22); settings: Homo sapiens, 22Rv1, read-out: inhibited proliferation, MDV3100 with control oligonucleotide ISIS 549148
# Procedure: 22RV1 cells were plated at 2,000 cells per well in 5% CSS medium for 48 hours. […] ISIS 549148 was included as a negative control. […] After a treatment period of 3 days, the proliferative capacity of the cancer cells was measured with CellTiter 96® AQueous One Solution Cell Proliferation kit (Promega), following the manufacturer's instructions. Results are presented in Tables 58-62 as percent inhibition of proliferation, relative to non-treated cells.
# TMPRSS2 mRNA [1] = test: TMPRSS2 expression in C4-2B cells (Example 30); settings: 48 hrs
# Procedure: Cells were plated at 1,000 cells per well. […] ISIS 549148 was included as a negative control. […] After an incubation period of 48 hrs, RNA levels of AR, PSA and TMPRSS2 were measured.
# Cells were plated at 2,000 cells per well and cultured in CSS media with 1 nM DHT. […] ISIS 549148 was included as a negative control. […] After an incubation period of 48 hrs, RNA levels of AR, PSA and TMPRSS2 were measured. In the absence of DHT, AR expression in C4-2 cells was 188%, PSA expression was 43% and TMPRSS2 expression was 27% compared to the untreated control.
# AR V7 variant mRNA = test: AR V7 variant RNA in 22RV1 cells; settings: 48 hrs
# PSA mRNA = test: PSA expression in 22RV1 cells; settings: 48 hrs
# Procedure: (§1) Cells were plated at 1,000 cells per well. […] After an incubation period of 48 hrs, RNA levels of full length AR, the V7 variant, PSA and TMPRSS2 were measured.
# (§2) After an incubation period of 48 hrs, RNA levels of full length AR, the V7 variant, PSA and TMPRSS2 were measured.
# (§3) Cells were plated at 2,000 cells per well and cultured in CSS media for 16 hours. […] After 4 hrs, 1 nM DHT was added. […] After an incubation period of 48 hrs, RNA levels of AR, AR V7 variant, PSA and TMPRSS2 were measured.
# TMPRSS2 mRNA [2] = test: TMPRSS2 expression in 22RV1 cells; settings: 48 hrs
# Procedure: as §1, §2, §3
compound,measurement,setting,value
549372 (kA*kA*kG*dT*dT*dG*dT*dA*dG*dT*dA*dG*dT*k[5mC]*kG*k[5mC]) [compound 549372],Percent inhibition of KLK3 mRNA in C4-2B MR cells,KLK3 mRNA; 0.04 μM,17%
same,Percent inhibition of KLK3 mRNA in C4-2B MR cells,KLK3 mRNA; 0.20 μM,35%
same,Percent inhibition of KLK3 mRNA in C4-2B MR cells,KLK3 mRNA; 1.00 μM,68%
same,Percent inhibition of KLK3 mRNA in C4-2B MR cells,KLK3 mRNA; 5.00 μM,80%
same,Percent inhibition of C4-2B MR cell proliferation,C4-2B MR cells; 0.04 μM,0%
same,Percent inhibition of C4-2B MR cell proliferation,C4-2B MR cells; 0.20 μM,4%
same,Percent inhibition of C4-2B MR cell proliferation,C4-2B MR cells; 1.00 μM,25%
same,Percent inhibition of C4-2B MR cell proliferation,C4-2B MR cells; 5.00 μM,43%
549458 (kG*kT*kT*dG*dA*dT*dT*dT*dA*dA*dT*dG*dG*kT*kT*kG) [compound 549458],Percent inhibition of KLK3 mRNA in C4-2B MR cells,KLK3 mRNA; 0.04 μM,0%
same,Percent inhibition of KLK3 mRNA in C4-2B MR cells,KLK3 mRNA; 0.20 μM,42%
same,Percent inhibition of KLK3 mRNA in C4-2B MR cells,KLK3 mRNA; 1.00 μM,81%
same,Percent inhibition of KLK3 mRNA in C4-2B MR cells,KLK3 mRNA; 5.00 μM,92%
same,Percent inhibition of C4-2B MR cell proliferation,C4-2B MR cells; 0.04 μM,8%
same,Percent inhibition of C4-2B MR cell proliferation,C4-2B MR cells; 0.20 μM,16%
same,Percent inhibition of C4-2B MR cell proliferation,C4-2B MR cells; 1.00 μM,41%
same,Percent inhibition of C4-2B MR cell proliferation,C4-2B MR cells; 5.00 μM,56%
same,AR mRNA levels (% baseline value) after treatment with DHT,AR mRNA; ASO 0.04 μM,91 % baseline value
same,AR mRNA levels (% baseline value) after treatment with DHT,AR mRNA; ASO 0.20 μM,66 % baseline value
same,AR mRNA levels (% baseline value) after treatment with DHT,AR mRNA; ASO 1.0 μM,34 % baseline value
same,AR mRNA levels (% baseline value) after treatment with DHT,AR mRNA; ASO 5.0 μM,31 % baseline value
same,AR mRNA levels (% baseline value) after treatment with R1881,AR mRNA; ASO 0.04 μM,88 % baseline value
same,AR mRNA levels (% baseline value) after treatment with R1881,AR mRNA; ASO 0.20 μM,56 % baseline value
same,AR mRNA levels (% baseline value) after treatment with R1881,AR mRNA; ASO 1.0 μM,25 % baseline value
same,AR mRNA levels (% baseline value) after treatment with R1881,AR mRNA; ASO 5.0 μM,32 % baseline value
same,AR mRNA levels (% baseline value) of cells without AR agonist treatment,AR mRNA; ASO 0.04 μM,101 % baseline value
same,AR mRNA levels (% baseline value) of cells without AR agonist treatment,AR mRNA; ASO 0.20 μM,75 % baseline value
same,AR mRNA levels (% baseline value) of cells without AR agonist treatment,AR mRNA; ASO 1.0 μM,30 % baseline value
same,AR mRNA levels (% baseline value) of cells without AR agonist treatment,AR mRNA; ASO 5.0 μM,25 % baseline value
"CNC(=O)c1ccc(N2C(=S)N(c3ccc(C#N)c(C(F)(F)F)c3)C(=O)C2(C)C)cc1F [MDV3100, 4-(3-(4-cyano-3-(trifluoromethyl)phenyl)-5,5-dimethyl-4-oxo-2-thioxoimidazolidin-1-yl)-2-fluoro-N-methylbenzamide, reference compound]",AR mRNA levels (% baseline value) after treatment with DHT,AR mRNA; ASO 0.04 μM,105 % baseline value
same,AR mRNA levels (% baseline value) after treatment with DHT,AR mRNA; ASO 0.20 μM,124 % baseline value
same,AR mRNA levels (% baseline value) after treatment with DHT,AR mRNA; ASO 1.0 μM,110 % baseline value
same,AR mRNA levels (% baseline value) after treatment with DHT,AR mRNA; ASO 5.0 μM,143 % baseline value
same,AR mRNA levels (% baseline value) after treatment with R1881,AR mRNA; ASO 0.04 μM,94 % baseline value
same,AR mRNA levels (% baseline value) after treatment with R1881,AR mRNA; ASO 0.20 μM,107 % baseline value
same,AR mRNA levels (% baseline value) after treatment with R1881,AR mRNA; ASO 1.0 μM,115 % baseline value
same,AR mRNA levels (% baseline value) of cells without AR agonist treatment,AR mRNA; ASO 0.04 μM,106 % baseline value
same,AR mRNA levels (% baseline value) of cells without AR agonist treatment,AR mRNA; ASO 0.20 μM,101 % baseline value
same,AR mRNA levels (% baseline value) of cells without AR agonist treatment,AR mRNA; ASO 1.0 μM,99 % baseline value
same,AR mRNA levels (% baseline value) of cells without AR agonist treatment,AR mRNA; ASO 5.0 μM,92 % baseline value
same,AR mRNA levels in LMR20 cells,AR mRNA,increased the levels of AR mRNA in cells treated with AR agonist
same,inhibition at 1 µM,22RV1 cells,5%
same,Percent inhibition of TMPRSS2 expression,"TMPRSS2 mRNA [1]; CSS + DHT medium, 0.04 μM",0%
same,Percent inhibition of TMPRSS2 expression,"TMPRSS2 mRNA [1]; CSS + DHT medium, 0.2 μM",11%
same,Percent inhibition of TMPRSS2 expression,"TMPRSS2 mRNA [1]; CSS + DHT medium, 1 μM",48%
same,Percent inhibition of TMPRSS2 expression,"TMPRSS2 mRNA [1]; CSS + DHT medium, 5.0 μM",66%
same,Percent inhibition of TMPRSS2 expression,"TMPRSS2 mRNA [1]; complete medium, 0.04 μM",3%
same,Percent inhibition of TMPRSS2 expression,"TMPRSS2 mRNA [1]; complete medium, 0.2 μM",24%
same,Percent inhibition of TMPRSS2 expression,"TMPRSS2 mRNA [1]; complete medium, 1 μM",55%
same,Percent inhibition of TMPRSS2 expression,"TMPRSS2 mRNA [1]; complete medium, 5.0 μM",71%
same,"Percent of gene expression, AR V7 variant","AR V7 variant mRNA; CSS + DHT medium, 0.04 μM",16%
same,"Percent of gene expression, AR V7 variant","AR V7 variant mRNA; CSS + DHT medium, 0.2 μM",17%
same,"Percent of gene expression, AR V7 variant","AR V7 variant mRNA; CSS + DHT medium, 1.0 μM",19%
same,"Percent of gene expression, AR V7 variant","AR V7 variant mRNA; CSS + DHT medium, 5.0 μM",12%
same,"Percent of gene expression, AR V7 variant","AR V7 variant mRNA; complete medium, 0.04 μM",106%
same,"Percent of gene expression, AR V7 variant","AR V7 variant mRNA; complete medium, 0.2 μM",98%
same,"Percent of gene expression, AR V7 variant","AR V7 variant mRNA; complete medium, 1.0 μM",87%
same,"Percent of gene expression, AR V7 variant","AR V7 variant mRNA; complete medium, 5.0 μM",77%
same,"Percent of gene expression, PSA","PSA mRNA; CSS + DHT medium, 0.04 μM",15%
same,"Percent of gene expression, PSA","PSA mRNA; CSS + DHT medium, 0.2 μM",19%
same,"Percent of gene expression, PSA","PSA mRNA; CSS + DHT medium, 1.0 μM",18%
same,"Percent of gene expression, PSA","PSA mRNA; CSS + DHT medium, 5.0 μM",16%
same,"Percent of gene expression, PSA","PSA mRNA; complete medium, 0.04 μM",83%
same,"Percent of gene expression, PSA","PSA mRNA; complete medium, 0.2 μM",70%
same,"Percent of gene expression, PSA","PSA mRNA; complete medium, 1.0 μM",71%
same,"Percent of gene expression, PSA","PSA mRNA; complete medium, 5.0 μM",86%
same,"Percent of gene expression, TMPRSS2","TMPRSS2 mRNA [2]; CSS + DHT medium, 0.04 μM",17%
same,"Percent of gene expression, TMPRSS2","TMPRSS2 mRNA [2]; CSS + DHT medium, 0.2 μM",9%
same,"Percent of gene expression, TMPRSS2","TMPRSS2 mRNA [2]; CSS + DHT medium, 1.0 μM",26%
same,"Percent of gene expression, TMPRSS2","TMPRSS2 mRNA [2]; CSS + DHT medium, 5.0 μM",18%
same,"Percent of gene expression, TMPRSS2","TMPRSS2 mRNA [2]; complete medium, 0.04 μM",101%
same,"Percent of gene expression, TMPRSS2","TMPRSS2 mRNA [2]; complete medium, 0.2 μM",80%
same,"Percent of gene expression, TMPRSS2","TMPRSS2 mRNA [2]; complete medium, 1.0 μM",82%
same,"Percent of gene expression, TMPRSS2","TMPRSS2 mRNA [2]; complete medium, 5.0 μM",93%
"GTTGATTTAATGGTTG (all phosphorothioate, sugars by position not given here; further chemistry not fully specified) [ISIS 549458]",AR target gene KLK3 mRNA levels,"KLK3 mRNA; C4-2B MR cells, 0.04-5.00 μM",reduced target gene levels in a dose dependent manner more extensively than treatment with ISIS 554221
same,proliferation of C4-2B MR cells,C4-2B MR cells; 0.04-5.00 μM,reduced proliferation of the cells in a dose dependent manner more extensively than treatment with ISIS 554221
same,AR mRNA levels in LMR20 cells,AR mRNA,"reduced AR mRNA levels in LMR20 cells, treated with or without either AR agonist, in a dose dependent manner relative to the baseline"

# Source: patent publication USRE48461E1, “Modulation of androgen receptor expression” (Ionis Pharmaceuticals, Inc., priority 2012, dated 2021)
